Each molecule was assayed against Recombinant human HSD17B13 (Homo sapiens (Human), UniProt Q7Z5P4) (assay: HSD17B13 rapid-fire mass spectrometry assay (RF/MS assay)). Conditions: inhibition of HSD17B13; LTB4 10 μM, NAD+ 0.5 mM, RT 3 h; IC50 ranges A-E.
Chain of Recombinant human HSD17B13 (Q7Z5P4 20-300): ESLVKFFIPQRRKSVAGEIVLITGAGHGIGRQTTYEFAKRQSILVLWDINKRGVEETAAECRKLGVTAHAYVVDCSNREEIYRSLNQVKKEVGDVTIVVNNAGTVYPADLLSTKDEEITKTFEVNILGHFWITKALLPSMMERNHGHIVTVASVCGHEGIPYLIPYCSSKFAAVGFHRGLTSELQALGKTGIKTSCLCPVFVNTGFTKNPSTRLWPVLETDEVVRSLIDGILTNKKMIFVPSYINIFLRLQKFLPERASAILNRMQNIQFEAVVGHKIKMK
Type: biochemical
Method in brief: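 Sf9-expressed human HSD17B13 (80 nM) with 10 μM LTB4 and 0.5 mM NAD+, incubated with compound (0–100 μM) for 3 h at RT in Tris pH 7.5/BSA/Tween-20. After formic acid quench, LTB4 conversion to 12-oxo-LTB4 measured by RapidFire MS/MS. IC50 from normalised residual activity, duplicates.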
With COc1cc(C(=O)O)c(F)cc1NS(=O)(=O)c1csc(C#Cc2ccc(Cl)cc2)n1 [Example 228] the IC50 was under 100 nM.
In the case of COc1cc(C(=O)O)ccc1NS(=O)(=O)c1cccc(-c2ccc(C3CCC(C)(C)CC3)cc2)c1F [Example 473], the IC50 is reported as 100 to 500 nM.
Molecule COc1cc(C(=O)O)c(F)cc1NS(=O)(=O)c1csc(-c2ccc(C3=CCC(C)(C)CC3)c(OC)c2F)n1 [Example 545] has an IC50 of under 100 nM.
In the case of COc1cc(C(=O)O)ccc1NS(=O)(=O)c1ccc(-c2ccc(C)cc2)s1 [Example 175], the IC50 is reported as 100 to 500 nM.
In the case of COc1cc(C(=O)O)ccc1NS(=O)(=O)c1ccc(-c2ccc(-c3ccc(C)cc3)cc2)s1 [Example 199], the IC50 is reported as 100 to 500 nM.
With COc1cc(C(=O)O)ccc1NS(=O)(=O)c1csc(C#Cc2ccc(Cl)cc2)n1 [Example 185] the IC50 was 500 to 1000 nM.
Work on COc1cc(C(=O)O)c(F)cc1NS(=O)(=O)c1coc(-c2ccc(C3CCC(OC(=O)N4CCOCC4)CC3)cc2)n1 (stereo not drawn) [Example 630] yielded an IC50 of under 100 nM.
In the case of COc1cc(C(=O)O)ccc1NS(=O)(=O)c1csc(N2CCN(c3ccc(-c4ccccc4)cc3)CC2)n1 [Example 288], the IC50 is reported as 100 to 500 nM.
For COc1cc(C(=O)O)c(F)cc1NS(=O)(=O)c1cnc(-c2ccc(C3CCC(C)(C)CC3)cc2)s1 [Example 764], the IC50 was under 100 nM.
For COc1cc(C(=O)O)cc2c1N(S(=O)(=O)c1cnc(-c3ccc(F)cc3)s1)CCC2 [Example 132], the IC50 was 1000 to 100000 nM.
COc1cc(C(=O)O)c(F)cc1NS(=O)(=O)c1csc(-c2ccc(-c3ccc(C4CC4)cc3C(F)(F)F)cc2C(F)(F)F)n1 [Example 757] showed an IC50 of under 100 nM.
With COc1cc(C(=O)O)ccc1NS(=O)(=O)c1csc(-c2cccc3ccncc23)n1 [Example 155] the IC50 was 1000 to 100000 nM.
For COc1cc(C(=O)O)c(F)cc1NS(=O)(=O)c1csc(-c2ccc([C@H]3CC[C@H](C(C)C)CC3)c(OC(C)C)c2F)n1 [Example 587], the IC50 was under 100 nM.
With O=C(O)c1ccc(NS(=O)(=O)c2cnc(-c3ccc(F)cc3)s2)c2c1OCCO2 [Example 116] the IC50 was 1000 to 100000 nM.
O=C(O)c1ccc(NS(=O)(=O)c2cnc(-c3ccc(F)cc3)s2)nc1 [Example 33] showed an IC50 of 1000 to 100000 nM.
CC[C@H]1CC[C@H](c2ccc(-c3ncc(S(=O)(=O)Nc4cc(F)c(C(=O)O)cc4OC)s3)cc2)CC1 [Example 642] was tested, and the IC50 was 100 to 500 nM.
In the case of COc1c(NS(=O)(=O)c2cnc(-c3ccc(F)cc3)s2)ccc(C(=O)O)c1F [Example 59], the IC50 is reported as 100 to 500 nM.
With COc1cc(C(=O)O)ccc1NS(=O)(=O)c1csc(C#Cc2ccc(F)cc2)n1 [Example 184] the IC50 was 100 to 500 nM.
O=C(O)c1ccc2c(c1)N(S(=O)(=O)c1ccc(F)cc1)CC2 [Example 10] was tested, and the IC50 was 1000 to 100000 nM.
Work on COc1cc(C(=O)O)c(F)cc1NS(=O)(=O)c1csc(-c2ccc(C(F)(F)C(F)(F)F)cc2)n1 [Example 745] yielded an IC50 of 100 to 500 nM.
COc1cc(C(=O)O)ccc1NS(=O)(=O)c1ccc(-c2ccc(F)cc2)s1 [Example 174] showed an IC50 of under 100 nM.
For COc1cc(C(=O)O)ccc1NS(=O)(=O)Nc1ccc2nc(-c3ccc(F)cc3)sc2c1 [Example 328, 4-((N-(2-(4-fluorophenyl)benzo[d]thiazol-6-yl)sulfamoyl)amino)-3-methoxybenzoic acid], the IC50 was 1000 to 100000 nM.
Work on COc1cc(C(=O)O)c(F)cc1NS(=O)(=O)c1ccc2sc(-c3ccc(C4CC4)cc3)nc2c1 [Example 669] yielded an IC50 of 100 to 500 nM.
COc1cc(C(=O)O)c(C)cc1NS(=O)(=O)c1csc(-c2ccc(C3CCC(C)(C)CC3)cc2C(F)(F)F)n1 [Example 702] gave an IC50 of 1000 to 100000 nM.
For COc1cc(C(=O)O)c(F)cc1NS(=O)(=O)c1csc(-c2ccc(-c3ccc([C@H]4CC[C@@H](C(C)(C)C)CC4)cc3C(F)(F)F)cc2C(F)(F)F)n1 [Example 783], the IC50 was 100 to 500 nM.
COc1cc(C(=O)O)ccc1NS(=O)(=O)c1csc(N2CCCC(C(C)c3ccccc3)C2)n1 (stereo not drawn) [Example 295] showed an IC50 of 1000 to 100000 nM.
O=C(O)c1ccc(NS(=O)(=O)c2cccc(S(=O)(=O)Nc3ccc(C(=O)O)cc3O)c2)c(O)c1 [Example 170] gave an IC50 of 100 to 500 nM.
COc1cc(C(=O)O)ccc1NS(=O)(=O)c1csc(N2CCN(c3ccc(Br)cc3)CC2)n1 [Example 285] showed an IC50 of 1000 to 100000 nM.
For COc1cc(C(=O)O)ccc1NS(=O)(=O)N1Cc2nc(C3=CCC(c4ccccc4)CC3)sc2C1 (stereo not drawn) [Example 359, 3-methoxy-4-((2-(1,2,3,6-tetrahydro-[1,1′-biphenyl]-4-yl)-5,6-dihydro-4H-pyrrolo[3,4-d]thiazole)-5-sulfonamido)benzoic acid], the IC50 was under 100 nM.
COc1cccc(C#Cc2nc(S(=O)(=O)Nc3ccc(C(=O)O)cc3OC)cs2)n1 [Example 244] gave an IC50 of 500 to 1000 nM.
COc1cc(C(=O)O)c(Cl)cc1NS(=O)(=O)c1cnc(-c2ccc(F)cc2)s1 [Example 78] was tested, and the IC50 was 500 to 1000 nM.
In the case of COc1cc(C(=O)O)ccc1NS(=O)(=O)N1CCN(C2CCCC2)CC1 [Example 315], the IC50 is reported as 1000 to 100000 nM.
O=C(O)c1ccc(NS(=O)(=O)c2cnc(-c3ccc(F)cc3)s2)cn1 [Example 26] gave an IC50 of 1000 to 100000 nM.
Work on COc1cc(C(=O)O)c(F)cc1NS(=O)(=O)c1csc(-c2ccc(C3=CCC(C(F)(F)F)CC3)cc2C(F)(F)F)n1 (stereo not drawn) [Example 601] yielded an IC50 of under 100 nM.
COc1cc(C(=O)O)c(F)cc1NS(=O)(=O)c1csc(-c2ccc(C3CCC(C)(C)CC3)c(C(N)=O)c2)n1 [Example 533] showed an IC50 of 500 to 1000 nM.
In the case of COc1cc(C(=O)O)ccc1NS(=O)(=O)c1cncc(-c2ccc(C3CCCCC3)cc2)c1 [Example 433, 4-((5-(4-cyclohexylphenyl)pyridine)-3-sulfonamido)-3-methoxybenzoic acid], the IC50 is reported as 500 to 1000 nM.
Molecule O=C(O)C1CCC(NS(=O)(=O)c2cnc(-c3ccc(F)cc3)s2)CC1 (stereo not drawn) [Example 66] has an IC50 of over 100000 nM.
COc1cc(C(=O)O)c(F)cc1NS(=O)(=O)c1csc(-c2ccc(C3=CCC(C)(C)CC3)c(F)c2OC)n1 [Example 546] showed an IC50 of under 100 nM.
COc1cc(C(=O)O)ccc1NS(=O)(=O)c1cnc(-c2ccc(C3=CCC4(CC3)CC4)cc2)s1 [Example 736] gave an IC50 of 100 to 500 nM.
In the case of COc1cc(C(=O)O)ccc1NS(=O)(=O)c1ccc(-c2cccc(-c3ccc(C(F)(F)F)cc3)c2)s1 [Example 252], the IC50 is reported as 500 to 1000 nM.
With O=C(O)c1ccc(NS(=O)(=O)c2ccc(F)cc2)cc1 [Example 3] the IC50 was 1000 to 100000 nM.
Work on COc1cc(C#Cc2nc(S(=O)(=O)Nc3ccc(C(=O)O)cc3OC)cs2)ccn1 [Example 246] yielded an IC50 of 500 to 1000 nM.
For COc1cc(C(=O)O)ccc1NS(=O)(=O)c1ccc(-c2ccc(C3=CCC(C)(C)CC3)cc2)s1 [Example 429, 4-((5-(4′,4′-dimethyl-2′,3′,4′,5′-tetrahydro-[1,1′-biphenyl]-4-yl)thiophene)-2-sulfonamido)-3-methoxybenzoic acid], the IC50 was 100 to 500 nM.
For CC[C@H]1CC[C@H](c2ccc(-c3nc(S(=O)(=O)Nc4cc(F)c(C(=O)O)cc4OC)co3)cc2)CC1 [Example 495], the IC50 was under 100 nM.
O=C(O)c1ccc2cc(NS(=O)(=O)c3cnc(-c4ccc(F)cc4)s3)ccc2c1 [Example 387, 6-((2-(4-fluorophenyl)thiazole)-5-sulfonamido)-2-naphthoic acid] gave an IC50 of 1000 to 100000 nM.
With COc1cc(C(=O)O)c(F)cc1NS(=O)(=O)c1csc(-c2ccc(C3CCC(C)(C)CC3)cc2)n1 [Example 372] the IC50 was under 100 nM.
With COc1cc(C(=O)O)ccc1NS(=O)(=O)c1csc(-c2ccc(N3CCOCC3)cc2)n1 [Example 303] the IC50 was 1000 to 100000 nM.
Molecule COc1cc(C(=O)O)ccc1NS(=O)(=O)c1ccc(-c2ccc(C3CCCCC3)cc2)nc1 [Example 346] has an IC50 of 1000 to 100000 nM.
COc1cc(C(=O)O)ccc1NS(=O)(=O)c1ccc(-c2ccc(C3CCC(C)(C)CC3)cc2)s1 [Example 428, 4-((5-(4-(4,4-dimethylcyclohexyl)phenyl)thiophene)-2-sulfonamido)-3-methoxybenzoic acid] showed an IC50 of 100 to 500 nM.
Molecule COc1cc(C(=O)O)c(F)cc1NS(=O)(=O)c1csc(C#CC2CCC(C)(C)CC2)n1 [Example 514] has an IC50 of under 100 nM.
O=C(O)c1cc(NS(=O)(=O)c2cnc(-c3ccc(F)cc3)s2)n(-c2ccccc2)n1 [Example 92] gave an IC50 of 1000 to 100000 nM.
Work on COc1cc(C(=O)O)ccc1NS(=O)(=O)N1CCN(c2ccccc2)CC1 [Example 312] yielded an IC50 of 1000 to 100000 nM.
Molecule COc1ccccc1C#Cc1nc(S(=O)(=O)Nc2ccc(C(=O)O)cc2OC)cs1 [Example 195] has an IC50 of under 100 nM.
For O=C(O)c1ccc(NS(=O)(=O)c2cnc(-c3ccc(F)cc3)s2)c(C(F)F)c1 [Example 173], the IC50 was 1000 to 100000 nM.
O=C(O)c1ccc(NS(=O)(=O)c2cnc(-c3ccc(F)cc3)s2)c(F)c1F [Example 50] gave an IC50 of 100 to 500 nM.
COc1cc(C(=O)O)ccc1NS(=O)(=O)c1csc(N2CC(c3ccccc3)C2)n1 [Example 267] was tested, and the IC50 was 1000 to 100000 nM.
For COc1cc(C(=O)O)ccc1NS(=O)(=O)c1ccc(-c2ccc(F)cc2)cc1 [Example 316], the IC50 was 100 to 500 nM.
Work on COc1cccc(C#Cc2nc(S(=O)(=O)Nc3cc(F)c(C(=O)O)cc3OC)cs2)c1 [Example 242] yielded an IC50 of under 100 nM.
In the case of COc1cc(C(=O)O)c(F)cc1NS(=O)(=O)c1csc(-c2ccc(C3=CCC(C)(C)CC3)c(C(N)=O)c2)n1 [Example 530], the IC50 is reported as 500 to 1000 nM.
COc1cc(C(=O)O)ccc1NS(=O)(=O)c1csc(-c2ccc(-c3ccccc3)cc2)n1 [Example 301] was tested, and the IC50 was 500 to 1000 nM.
CCCCOc1c(C2=CCC(C)(C)CC2)ccc(-c2nc(S(=O)(=O)Nc3cc(F)c(C(=O)O)cc3OC)cs2)c1F [Example 578] gave an IC50 of 100 to 500 nM.
COc1cc(C(=O)O)c(F)cc1NS(=O)(=O)c1ccc2sc(-c3ccc(-c4ccccc4)cc3)nc2c1 [Example 668] was tested, and the IC50 was 100 to 500 nM.
With COc1cc(C(=O)O)ccc1NS(=O)(=O)c1csc(-c2cccc3cnn(C)c23)n1 [Example 403, 3-methoxy-4-((2-(1-methyl-1H-indazol-7-yl)thiazole)-4-sulfonamido)benzoic acid] the IC50 was 500 to 1000 nM.
For COc1cc(C(=O)O)ccc1NS(=O)(=O)c1cnc(-c2ccc(-c3ccc(C(F)(F)F)cc3)cc2)s1 [Example 718], the IC50 was under 100 nM.
With COc1cc(C(=O)O)ccc1NS(=O)(=O)c1ccc(Oc2ccccc2OC)cc1 [Example 134] the IC50 was 500 to 1000 nM.
CC[C@H]1CC[C@H](c2ccc(-c3nc(S(=O)(=O)Nc4ccc5c(O)cccc5c4OC)cs3)cc2)CC1 [Example 648] was tested, and the IC50 was 1000 to 100000 nM.

— patent US12384753B2, “17-beta-hydroxysteroid dehydrogenase type 13 inhibitors and methods of use thereof” (Enanta Pharmaceuticals, Inc., priority 2021, dated 2025)
